# Source: article PMC9784969, “SARS-CoV-2 Inhibitors Identified by Phenotypic Analysis of a Collection of Viral RNA-Binding Molecules” (Pharmaceuticals, 2022)
# Read-outs that look alike come from different tables or passages of the source.
# Columns and labels:
# [1] = tested on: subdomain IIB of the rev recognition element (RRE) of the HIV-1 genomic RNA; details: cited from earlier work
# HIV-1 = details: cited from earlier work
# SARS-CoV-2 USA-WA1/2020 [2] = assay: microbe, parasite or virus in culture; assay type: cell-based; details: read-out: SARS-CoV-2 EC50
# in vitro [3] = details: human, uninfected 293T-ACE2 cells
# in vitro [4] = details: African green monkey, uninfected Vero E6 cells
# SARS-CoV-2 USA-WA1/2020 [5] = assay: microbe, parasite or virus in culture; assay type: cell-based; details: read-out: SARS-CoV-2 EC50; remark: listed apart in the source
# SCoV2 USA-WA1/2020 = assay type: cell-based; details: 293T-ACE2, MOI 2, 8-h single cycle
# SCoV2 RNA elements = assay: ligand-based 1H NMR (1D, CPMG, wLOGSY), six RNA elements compared; assay type: binding, SARS-CoV-2; details: CSP, LB, CPMG and wLOGSY perturbations; 300 µM compound
# Excerpt: We first used ligand-based ^1H NMR experiments to analyze the interaction of the selected compounds with each of the six RNA elements specified above, including one-dimensional, Carr–Purcell–Meiboom–Gill (CPMG) and waterLOGSY (wLOGSY) experiments. These assays detect changes in the ^1H signals of the ligand upon RNA association (Figure 4A), and have been successfully used to evaluate small-molecule binding to RNA motifs, including elements of the SCoV2 genome.
# Each ligand (at a concentration of 300 μM) was mixed with a smaller quantity of RNA in an aqueous solution containing 25 mM potassium phosphate (pH 6.2), 150 mM KCl, 3 mM MgCl2, and 10% D2O. RNA–ligand molar ratios of 1:50 and 1:100 were explored (with 6 and 3 μM RNA, respectively). […] The water signal was suppressed from one-dimensional experiments with a watergate sequence. The CPMG experiments were acquired with 100, 200, 300, and 400 ms relaxation delays before acquisition, and water suppression was achieved by presaturation. wLOGSY experiments employed a selective Gaussian 180° pulse at the water frequency and an NOE mixing time of 1.5 s and suppressed the water signal by excitation sculpting. All spectra were acquired in the absence and presence of RNA.
# All ligand signals were individually analyzed. For clomiphene citrate, the signals corresponding to cis and trans forms were identified by comparing the spectrum of clomiphene citrate with those of the individual stereoisomers. In CPMG experiments, the binding of the compounds to the different RNA sequences was quantified as 100 minus the percentage of ligand signal area in the +RNA CPMG spectrum relative to the corresponding signal area in the -RNA CPMG spectrum. In wLOGSY experiments, binding was quantified with the LOGSY factor, or % of ligand signal in the difference spectrum between the +RNA and –RNA wLOGSY spectra, relative to the corresponding signal in the one-dimensional -RNA reference spectrum. In one-dimensional experiments, line broadening (LB) was quantified as explained for CPMG spectra.
# [6] = ref 2 (Table S1 list: Prado et al. 2018)
# [7] = ref 4 (Table S1 list: Medina-Trillo et al. 2020)
# [8] = Vero E6 cells, MOI 0.025, two days
# [9] = Severe acute respiratory syndrome coronavirus 2, Vero C1008, 48 h, Vero E6 cells, MOI 0.025, two days
# [10] = Severe acute respiratory syndrome coronavirus 2, Vero C1008, 48 h
# [11] = Severe acute respiratory syndrome coronavirus 2, 293T/ACE2, 48 h
# [12] = ref 3 (Table S1 list: Simba-Lahuasi et al., Unpublished results)
# [13] = ref 1 (Table S1 list: Prado et al. 2016)
# [14] = ref 5 (Table S1 list: Sedgwick, Ph.D. thesis 2018)
molecule,measurement,setting,value
CN(C)CCOc1cc2c(c3ccccc13)-c1ccccc1C2=O [1a],Previous target RNA binding,[1]; [6],yes
same,Previous target RNA binding,[1]; [7],yes
same,Previous target virus activity,HIV-1; [6],yes
same,Previous target virus activity,HIV-1; [7],yes
same,EC50,SARS-CoV-2 USA-WA1/2020 [2]; [8],> 20 µM
OC(CNCC1CCCO1)Cn1c2ccc(Br)cc2c2cc(Br)ccc21 (centres unmarked) [1b],Previous target RNA binding,[1]; [6],yes
same,Previous target RNA binding,[1]; [7],yes
same,Previous target virus activity,HIV-1; [6],yes
same,Previous target virus activity,HIV-1; [7],no
CCN(CC)CCNc1cc(-c2cccs2)nc2ccccc12 [1d],Previous target RNA binding,[1]; [6],yes
same,Previous target virus activity,HIV-1; [6],yes
same,EC50,SARS-CoV-2 USA-WA1/2020 [2]; [9],6.64 µM
same,EC50,SARS-CoV-2 USA-WA1/2020 [2]; [8],6.24 µM
same,CC50 at 2 days,in vitro [3],7.5 µM
Fc1nc(N2CCNCC2)c(F)c(Sc2ccc(Cl)cc2)c1F [2a],Previous target RNA binding,[1]; [6],yes
same,CC50 at 2 days,in vitro [4],> 20 µM
same,Previous target virus activity,HIV-1; [6],yes
same,EC50,SARS-CoV-2 USA-WA1/2020 [2]; [10],6.24 µM
same,CC50 at 2 days,in vitro [3],5.32 µM
same,EC50,SARS-CoV-2 USA-WA1/2020 [5]; [11],0.63 µM
COc1ccc(-c2cc(C)c(-c3cc(CCN)c(OC)cc3CCN)cc2C)cc1CCN [3a],Previous target RNA binding,[1]; [7],yes
same,CC50 at 2 days,in vitro [4],> 20 µM
same,Previous target virus activity,HIV-1; [7],yes
same,EC50,SARS-CoV-2 USA-WA1/2020 [2]; [9],> 20 µM
CCC(=C(c1ccccc1)c1ccc(OCCN(C)C)cc1)c1ccc(O)cc1 [4'OH-tamoxifen],Previous target RNA binding,[1]; ref Unpublished,yes
same,CC50 at 2 days,in vitro [4],2.7 µM
same,Previous target virus activity,HIV-1; ref Unpublished,yes
same,EC50,SARS-CoV-2 USA-WA1/2020 [2]; [9],0.74 µM
C=C(C)Cn1c(NCCCn2ccnc2)nc2c1c(=O)[nH]c(=O)n2C [17a5],Previous target RNA binding,[1]; [6],yes
same,CC50 at 2 days,in vitro [4],> 20 µM
same,Previous target virus activity,HIV-1; [6],yes
same,EC50,SARS-CoV-2 USA-WA1/2020 [2]; [9],> 20 µM
CCC(=C(c1ccc(OC)cc1)c1ccc(OC)cc1)c1cn(CC(O)CN(C)C)c2ccccc12 (centres unmarked) [Bisphenylindol],Previous target RNA binding,[1]; [12],yes
same,Previous target virus activity,HIV-1; [12],yes
same,EC50,SARS-CoV-2 USA-WA1/2020 [2]; [9],2.1 µM
"O=C(O)c1cn(C2CC2)c2cc(N3CCNCC3)c(F)cc2c1=O [Cyprofloxacine, reference compound]",Previous target RNA binding,[1]; [13],yes
same,Previous target virus activity,HIV-1; [13],yes
same,EC50,SARS-CoV-2 USA-WA1/2020 [2]; [9],> 20 µM
"CN1CCC(=C2c3ccccc3C=Cc3ccccc32)CC1 [Cyprohetadine, reference compound]",Previous target RNA binding,[1]; [13],yes
same,CC50 at 2 days,in vitro [4],> 20 µM
same,Previous target virus activity,HIV-1; [13],yes
"O=C1c2c(O)ccc(O)c2C(=O)c2c(NCCNCCO)ccc(NCCNCCO)c21 [Mitoxantrone, reference compound]",Previous target RNA binding,[1]; [13],yes
same,CC50 at 2 days,in vitro [4],0.806 µM
same,Previous target virus activity,HIV-1; [13],yes
same,EC50,SARS-CoV-2 USA-WA1/2020 [2]; [9],2.4 µM
"CCC(CC)COC(=O)[C@H](C)N[P@](=O)(OC[C@H]1O[C@@](C#N)(c2ccc3c(N)ncnn23)[C@H](O)[C@@H]1O)Oc1ccccc1 [Remdesivir, reference compound]",CC50 at 2 days,in vitro [4],> 20 µM
same,inhibition when added at +4 h,SCoV2 USA-WA1/2020,decreased
same,EC50,SARS-CoV-2 USA-WA1/2020 [2]; [10],0.428 µM
same,CC50 at 2 days,in vitro [3],> 2 µM
same,EC50,SARS-CoV-2 USA-WA1/2020 [5]; [11],0.0104 µM
CCC(=C(c1ccccc1)c1ccc(OCCN(C)CCOc2ccc(C(=C(CC)c3ccccc3)c3ccccc3)cc2)cc1)c1ccccc1 [Tamoxifen dimer],Previous target RNA binding,[1]; ref Unpublished,yes
same,CC50 at 2 days,in vitro [4],> 20 µM
same,Previous target virus activity,HIV-1; ref Unpublished,no
same,EC50,SARS-CoV-2 USA-WA1/2020 [2]; [9],> 20 µM
"CCN(CC)CCOc1ccc(C(O)(Cc2ccc(Cl)cc2)c2ccc(C)cc2)cc1 (centres unmarked) [Triparanol, reference compound]",Previous target RNA binding,[1]; [12],yes
same,CC50 at 2 days,in vitro [4],> 20 µM
same,Previous target virus activity,HIV-1; [12],yes
same,EC50,SARS-CoV-2 USA-WA1/2020 [2]; [9],0.811 µM
CC1CN(C(c2ccccc2)(c2ccccc2)c2ccccc2)CCN1 (centres unmarked) [Trityl-piperazine],Previous target RNA binding,[1]; [12],yes
same,CC50 at 2 days,in vitro [4],2.22 µM
same,Previous target virus activity,HIV-1; [12],yes
same,EC50,SARS-CoV-2 USA-WA1/2020 [2]; [9],0.644 µM
same,CC50 at 2 days,in vitro [3],> 3.67 µM
same,EC50,"SARS-CoV-2 USA-WA1/2020 [5]; Severe acute respiratory syndrome coronavirus 2, 48 h, 293T-ACE2 cells, MOI 0.25, two days",0.27 µM
COc1ccc(-c2ccc(-c3ccc(O)c(CCN)c3)c(C)c2)c(CCN)c1 [compound 1],Previous target RNA binding,[1]; [14],yes
same,CC50 at 2 days,in vitro [4],> 20 µM
same,EC50,SARS-CoV-2 USA-WA1/2020 [2]; [9],> 20 µM
Cc1cc(-c2cc(CCN)ccc2CCN)c(C)cc1-c1ccccc1CCN [compound 4],Previous target RNA binding,[1]; [7],yes
same,CC50 at 2 days,in vitro [4],> 20 µM
same,Previous target virus activity,HIV-1; [7],yes
same,EC50,SARS-CoV-2 USA-WA1/2020 [2]; [9],> 20 µM
Cc1cc(-c2c(CCN)cccc2CCN)cc(C)c1-c1cc(CCN)c(Oc2ccccc2)c(CCN)c1 [compound 6],Previous target RNA binding,[1]; [14],yes
same,CC50 at 2 days,in vitro [4],> 20 µM
same,Previous target virus activity,HIV-1; [14],yes
same,EC50,SARS-CoV-2 USA-WA1/2020 [2]; [9],> 20 µM
Cc1cc(-c2c(CCN)cccc2CCN)cc(C)c1-c1cc(CCCN)c(O)c(CCCN)c1 [compound 11],Previous target RNA binding,[1]; [14],yes
same,CC50 at 2 days,in vitro [4],> 20 µM
same,Previous target virus activity,HIV-1; [14],yes
same,EC50,SARS-CoV-2 USA-WA1/2020 [2]; [9],> 20 µM
Cc1cc(-c2c(CCNC(=N)N)cccc2CCNC(=N)N)cc(C)c1-c1cc(CCCNC(=N)N)cc(CCCNC(=N)N)c1 [compound 18],Previous target RNA binding,[1]; [14],yes
same,CC50 at 2 days,in vitro [4],> 20 µM
same,Previous target virus activity,HIV-1; [14],yes
same,EC50,SARS-CoV-2 USA-WA1/2020 [2]; [9],> 20 µM
CN(C)CCOc1ccc(C(=C(CCO)c2ccccc2)c2ccccc2)cc1 [βOH-tamoxifen],Previous target RNA binding,[1]; ref Unpublished,yes
same,CC50 at 2 days,in vitro [4],22.2 µM
same,Previous target virus activity,HIV-1; ref Unpublished,yes
same,EC50,SARS-CoV-2 USA-WA1/2020 [2]; [9],5.4 µM
Cis-clomiphene,Previous target RNA binding,[1]; ref Unpublished,yes
same,Previous target virus activity,HIV-1; ref Unpublished,yes
same,RNA binding preference,SCoV2 RNA elements,bound RNA with stronger affinity than the trans form
Trans-clomiphene,Previous target RNA binding,[1]; ref Unpublished,yes
same,Previous target virus activity,HIV-1; ref Unpublished,yes
